The values below are quoted from earlier work in US20120225135A1 (priority 2010, published 2012).

For this data set, the system named is biofilm. To be noted: cited from earlier work.

Turning to `O=CCCCC=O` [Glutaraldehyde], the effect on biofilm result is “no effect on biofilm”.
Consider `O=[O+][O-]` [Ozone], for which the effect on biofilm result is on record as “kill cells in the biofilm without any detachment of the biofilm”.
For `OO` [hydrogen peroxide], the “effect on biofilm detachment” value is listed as “very poor to no effect”.
For the compound `CC(=O)OO` [peracetic acids], the “effect on biofilm detachment” value is “very poor to no effect”.
For the compound chloramines, the detachment of biofilms entry is “very effective”.
